Converted amounts (≈) assume the structure as drawn.

The nature of series [1]: Solubility (pH 7.4 buffer ar 25 degree C). The series is classed as physicochemical. As to conditions: read-out: S.
Series [2] is described as follows: pKa value in 30% EtOH-H20. The series is classed as physicochemical. As to conditions: 30% EtOH-H2O.
For series [3], the target named is T1, Carbonic anhydrase 2 (Homo sapiens, UniProt P00918).
Description: In vitro inhibition against purified human erythrocyte carbonic anhydrase II was determined (acetozolamide used as control.)
Series [4] deals with T1, Carbonic anhydrase 2. This is another data set of the same source.
Description: In vitro binding to human erythrocyte Carbonic anhydrase II was determined by fluorescence competition assay employing the fluorescent CA inhibitor dansylamide
In series [5] the target is T1, Carbonic anhydrase 2. This is another data set of the same source.
Description: In vitro binding to human erythrocyte carbonic anhydrase was determined by fluorescence competition assay employing the fluorescent CA inhibitor dansylamide
A short description of series [6]: Partition coefficient determined in 1-octanol buffer pH 7.4. It counts as physicochemical. As to conditions: octanol/water.
A short description of series [7]: Total solubility measured on pH 7.4 buffer at 25 degree C. It counts as ADME. As to conditions: read-out: S.

On to `CC(C)(C)C(=O)Oc1ccc2nc(S(N)(=O)=O)sc2c1`, for which, in series [1], the solubility turned out to be 58 µg/mL (≈ 0.184 mM).
Take `NS(=O)(=O)c1cc2c(s1)SCCC2=O`: the solubility in series [1] came out at 70 µg/mL (≈ 0.281 mM). Moreover, the pKa in series [2] came to 8.6. The IC50 on Carbonic anhydrase 2 [3] turned out to be 8.5 nM. For the same molecule, the Ki on Carbonic anhydrase 2 [4] was determined as 3.63 nM.
For the molecule `NS(=O)(=O)c1cc2c(s1)S(=O)(=O)CC(O)C2` (configuration not stated), in series [1], the solubility stood at 8200 µg/mL (≈ 28.9 mM). In addition, in series [2], the pKa was 8.6. At Carbonic anhydrase 2 [3], this molecule came in with an IC50 of 10 nM. In addition, the Ki on Carbonic anhydrase 2 [5] is 7.11 nM.
Take `NS(=O)(=O)c1cc2c(s1)C(O)CCS2(=O)=O` (configuration not stated): the solubility in series [1] was 15000 µg/mL (≈ 52.9 mM). The pKa in series [2] stood at 8.34. This molecule also showed an IC50 against Carbonic anhydrase 2 [3] of 40 nM. Moreover, the Ki at Carbonic anhydrase 2 [4] was found to be 30.5 nM.
With `NS(=O)(=O)c1cc2c(s1)C(O)CC[S+]2[O-]` (configuration not stated), the solubility in series [1] is 7200 µg/mL (≈ 26.9 mM). Also, the pKa in series [2] turned out to be 8.82. In addition, half-maximal inhibition against Carbonic anhydrase 2 [3] (IC50) was put at 250 nM. The molecule further came in with a Ki on Carbonic anhydrase 2 [5] of 309 nM.
In the case of `NS(=O)(=O)c1cc2c(s1)CC(O)CS2(=O)=O` (configuration not stated), the Partition coefficient in series [6] worked out at 0.2. The solubility in series [1] came to 7300 µg/mL (≈ 25.8 mM). Besides, the pKa in series [2] worked out at 8.52. On Carbonic anhydrase 2 [3], the IC50 was determined as 40 nM. Moreover, the affinity on Carbonic anhydrase 2 [5], expressed as Ki, was 18.2 nM.
Take `NS(=O)(=O)c1cc2c(s1)C(O)CCS2` (configuration not stated): in series [6], the Partition coefficient turned out to be 3. Moreover, the solubility in series [1] was 1400 µg/mL (≈ 5.57 mM). This molecule also showed a pKa in series [2] of 9. Also, the IC50 against Carbonic anhydrase 2 [3] came to 23 nM. Further, the Ki at Carbonic anhydrase 2 [4] amounted to 14.2 nM.
`NS(=O)(=O)c1cc2c(s1)S(=O)(=O)CCC2=O` showed a Partition coefficient in series [6] of 0.92. Besides, the solubility in series [1] is 270 µg/mL (≈ 0.96 mM). The molecule also yielded a pKa in series [2] of 7.92. This molecule showed an IC50 against Carbonic anhydrase 2 [3] of 5 nM.
In the case of `NS(=O)(=O)c1cc2c(s1)SCCC2O` (configuration not stated), the solubility in series [1] was 640 µg/mL (≈ 2.55 mM). Besides, the pKa in series [2] turned out to be 9.4. The molecule also showed an IC50 on Carbonic anhydrase 2 [3] of 30 nM. In addition, the inhibitory constant (Ki) at Carbonic anhydrase 2 [4] was 28 nM.
`NS(=O)(=O)c1cc2c(s1)C(=O)CCS2(=O)=O` yielded a Partition coefficient in series [6] of 0.63. Also, the solubility in series [1] was determined as 60 µg/mL (≈ 0.213 mM). The molecule also had a pKa in series [2] of 7.32. Half-maximal inhibition against Carbonic anhydrase 2 [3] (IC50) was put at 22 nM. This molecule came in with a Ki at Carbonic anhydrase 2 [4] of 14.1 nM.
For `CCOc1ccc2nc(S(N)(=O)=O)sc2c1` [ETHOXZOLAMIDE], the solubility in series [1] was 24 µg/mL (≈ 0.0929 mM).
Consider `NS(=O)(=O)c1cc2c(s1)S(=O)(=O)CCC2`, for which the solubility in series [1] was found to be 560 µg/mL (≈ 2.09 mM). Also, the pKa in series [2] came to 8.35. This molecule also gave an IC50 against Carbonic anhydrase 2 [3] of 4.5 nM. For the same molecule, the affinity at Carbonic anhydrase 2 [5], expressed as Ki, was 3.3 nM.
As for `NS(=O)(=O)c1cc2c(s1)[S+]([O-])CCC2O` (configuration not stated), the solubility in series [1] was 12000 µg/mL (≈ 44.9 mM). Also, the pKa in series [2] is 8.68. Further, the IC50 against Carbonic anhydrase 2 [3] was determined as 100 nM. The molecule further displayed a Ki on Carbonic anhydrase 2 [5] of 104 nM.
For the molecule `NS(=O)(=O)c1cc2c(s1)S(=O)(=O)CCC2O` (configuration not stated), in series [6], the Partition coefficient is 0.45. In addition, in series [1], the solubility came to 12500 µg/mL (≈ 44.1 mM). Also, in series [2], the pKa was 8.35.
On to `NS(=O)(=O)c1cc2c(s1)C(=O)CCS2`, for which, in series [7], the solubility is 80 µg/mL (≈ 0.321 mM). Also, the pKa in series [2] amounted to 8.45. The IC50 against Carbonic anhydrase 2 [3] worked out at 3.5 nM. At Carbonic anhydrase 2 [4], this molecule returned an inhibition constant Ki of 1.15 nM.
`NS(=O)(=O)c1cc2c(s1)S(=O)(=O)CC[C@@H]2O`: in series [6], the Partition coefficient stood at 0.42. Further, the solubility in series [1] stood at 6400 µg/mL (≈ 22.6 mM). For the same molecule, the pKa in series [2] is 8.3.
Regarding `NS(=O)(=O)c1cc2c(s1)S(=O)(=O)CC[C@H]2O`, in series [6], the Partition coefficient was 0.42. The solubility in series [1] was 6300 µg/mL (≈ 22.2 mM). Moreover, the pKa in series [2] was found to be 8.35.

The values above are taken from ChEMBL document CHEMBL1123900, “Thienothiopyran-2-sulfonamides: a novel class of water-soluble carbonic anhydrase inhibitors” (J Med Chem, 1987).
